Tested on: rats
Experiment: Escape reaction latency after zytisin with or without serum
Type: in vivo, rat
Protocol: During the formation and the long-term maintenance of information a significant role is attributed to H-cholino-ceptive mechanisms. 30 animals who were taught for five days how to dive under a “bell” were subdivided into three groups.
A physiological solution of zytisin (a H-cholino-ceptive antagonist of the brain) was injected with a dose of 1 mg/kg body weight into the peritoneal cavity 30 minutes prior to the test of the animals of the first group (ten rats).
Biologically active serum was administered in a dose of 100 mg/kg body weight to the animals of the second group (ten rats) and 30 minutes later a zytisin solution was administered with a dose of 1 mg/kg body weight.
The third animal group (control—ten rats) received a 1 ml injection of a physiological salt solution.
The complex behaviour of the animals was tested according to above-indicated method 48 hours after the injection of the indicated substances.

O=c1cccc2n1C[C@@H]1CNC[C@H]2C1 [zytisin]
slowing of the “escape reaction” in comparison to control animals (48 hours after zytisin 1 mg/kg): 3 fold
Latency period for the reaction of rats to the situation (after 48 h, zytisin 1 mg/kg, serum 100 mg/kg 30 minutes before zytisin, control 13.33 ± 0.58): 40.0 ± 14 s
